#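 Five compound concentrations were applied to cells in 96-well plates for 48 hours; endpoints were derived by simple linear interpolation of the resulting dose-response curve. At the GI50, growth is halved. TGI: total growth inhibition.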
# How the values were obtained:
# Assay in all cases: DTP human tumour cell line panel, 48 h
# [1] = test system: COLO 205 colon
# [2] = test system: DU-145 prostate
# [3] = test system: HCT-15 colon
# [4] = test system: MDA-MB-435
# [5] = test system: NCI-H460 lung
# [6] = test system: PC-3 prostate
# [7] = test system: SF-268 CNS
# [8] = test system: SK-MEL-2 melanoma
# [9] = test system: UACC-257 melanoma
# [10] = test system: UACC-62 melanoma
smiles,measurement,setting,value
COc1ccc(C(=O)NC2=C(Cl)C(=O)c3ccccc3C2=O)cc1,TGI,[1],3.74 µM
same,TGI,[2],15.2 µM
same,TGI,[3],11 µM
same,TGI,[4],7.53 µM
same,TGI,[5],13.7 µM
same,TGI,[6],10.8 µM
same,TGI,[7],35.6 µM
same,TGI,[8],3.13 µM
same,TGI,[9],4.5 µM
same,TGI,[10],2.63 µM
O=NN1C(c2ccccc2)C2CCCC(C2=O)C1c1ccccc1 (centres undefined),TGI,[1],32 µM
same,TGI,[3],> 87.7 µM
same,TGI,[5],48.3 µM
same,TGI,[7],> 100 µM
same,TGI,[8],40.5 µM
same,TGI,[9],66.2 µM
same,TGI,[10],59 µM
C[C@]12Cc3cnc(-c4ccccc4)nc3C[C@@H]1CC[C@@H]1[C@@H]2CC[C@@]2(C)[C@H]1CC[C@]2(C)O,TGI,[1],43.2 µM
same,TGI,[2],44.1 µM
same,TGI,[3],> 63.2 µM
same,TGI,[4],> 70.4 µM
same,TGI,[5],39.4 µM
same,TGI,[6],36.3 µM
same,TGI,[7],33 µM
same,TGI,[8],58.3 µM
same,TGI,[9],44.9 µM
same,TGI,[10],48.4 µM
COC(=O)c1c(C)[nH]c2c1C(=O)C(=O)c1nc(C)c(C)nc1-2,TGI,[1],29.5 µM
same,TGI,[2],25.5 µM
same,TGI,[3],> 100 µM
same,TGI,[4],28.5 µM
same,TGI,[5],> 100 µM
same,TGI,[6],29.3 µM
same,TGI,[7],23.6 µM
same,TGI,[8],16.3 µM
same,TGI,[9],24.6 µM
same,TGI,[10],18.9 µM
O=S(=O)(O)c1cc(S(=O)(=O)O)c2cc(N=Nc3c(O)ccc4ccccc34)ccc2c1,TGI,[1],> 100 µM
same,TGI,[2],> 100 µM
same,TGI,[3],> 100 µM
same,TGI,[4],> 100 µM
same,TGI,[6],> 100 µM
same,TGI,[7],> 100 µM
same,TGI,[8],> 100 µM
same,TGI,[9],> 100 µM
same,TGI,[10],> 100 µM
COc1ccc(NC(=S)NNC(=O)c2nsc3ccccc23)cc1,TGI,[1],> 100 µM
same,TGI,[3],> 100 µM
same,TGI,[5],> 100 µM
same,TGI,[7],> 100 µM
same,TGI,[8],90.8 µM
same,TGI,[9],> 100 µM
same,TGI,[10],71.6 µM
Nc1c(OCC(=O)O)ccc2cc(S(=O)(=O)O)ccc12,TGI,[1],> 100 µM
same,TGI,[2],> 100 µM
same,TGI,[3],> 100 µM
same,TGI,[4],> 100 µM
same,TGI,[5],> 100 µM
same,TGI,[6],> 100 µM
same,TGI,[7],> 100 µM
same,TGI,[8],> 100 µM
same,TGI,[9],> 100 µM
same,TGI,[10],> 100 µM
O=C(Nn1c(-c2cccs2)nc2ccc(I)cc2c1=O)c1ccccc1,TGI,[1],> 100 µM
same,TGI,[2],46.7 µM
same,TGI,[3],> 100 µM
same,TGI,[4],45.7 µM
same,TGI,[5],> 100 µM
same,TGI,[6],> 100 µM
same,TGI,[7],> 100 µM
same,GI50,[8],24 µM
same,TGI,[8],69.4 µM
same,TGI,[9],31.1 µM
same,TGI,[10],57.3 µM
CN1CC(c2ccccc2)C(O)(C2(c3ccccc3)CN(C)CC(c3ccccc3)C2=O)C(c2ccccc2)C1 (centres undefined),TGI,[1],> 100 µM
same,TGI,[2],> 100 µM
same,TGI,[3],> 100 µM
same,TGI,[4],> 100 µM
same,TGI,[5],> 100 µM
same,TGI,[6],> 100 µM
same,TGI,[7],> 100 µM
same,TGI,[8],> 100 µM
same,TGI,[9],> 100 µM
same,TGI,[10],> 100 µM
Cc1cn(C2C=CC(COP(=O)(OCc3ccc([N+](=O)[O-])o3)N(C)CCCCCl)O2)c(=O)[nH]c1=O (centres undefined),TGI,[1],9.87 µM
same,TGI,[2],26.1 µM
same,TGI,[3],35.7 µM
same,TGI,[4],4.42 µM
same,TGI,[5],23.6 µM
same,TGI,[6],27.8 µM
same,TGI,[7],23.8 µM
same,TGI,[8],12.9 µM
same,TGI,[9],18.4 µM
same,TGI,[10],17.3 µM
CC[C@H](C)C1=C(OC(C)=O)[N@+]2([O-])Oc3ccc(-c4c(O)c(O)c(-c5ccc(OC(C)=O)cc5)c(OC(C)=O)c4OC(C)=O)cc3O[C@]2([C@@H](C)CC)C(=O)N1O,TGI,[1],> 50 µM
same,TGI,[2],> 50 µM
same,TGI,[3],> 50 µM
same,TGI,[4],> 50 µM
same,TGI,[5],> 50 µM
same,TGI,[6],> 50 µM
same,TGI,[7],> 50 µM
same,TGI,[8],> 50 µM
same,TGI,[9],> 50 µM
same,TGI,[10],46.9 µM
O=C(O)CCO/N=C1/C(c2c(O)[nH]c3ccccc23)=Nc2ccccc21,TGI,[1],35.1 µM
same,TGI,[2],75.1 µM
same,TGI,[3],42.3 µM
same,TGI,[4],> 100 µM
same,TGI,[5],> 100 µM
same,TGI,[6],> 100 µM
same,TGI,[7],> 100 µM
same,TGI,[8],37.7 µM
same,TGI,[9],> 100 µM
same,TGI,[10],46.9 µM
CC[C@@]1(OC(=O)CN(C)C)C(=O)OCc2c1cc1n(c2=O)Cc2cc3c(N)cccc3nc2-1,GI50,[1],0.656 µM
same,TGI,[1],6.9 µM
same,GI50,[2],0.0115 µM
same,TGI,[2],0.081 µM
same,GI50,[3],0.317 µM
same,TGI,[3],> 100 µM
same,GI50,[4],0.078 µM
same,TGI,[4],0.259 µM
same,GI50,[6],0.0524 µM
same,TGI,[6],> 100 µM
same,GI50,[7],< 0.01 µM
same,TGI,[7],0.11 µM
same,GI50,[8],1.24 µM
same,TGI,[8],> 100 µM
same,GI50,[9],0.0933 µM
same,TGI,[9],0.981 µM
same,GI50,[10],0.0164 µM
same,TGI,[10],0.159 µM
OC(c1ccc(Cl)cc1)(c1ccc(Cl)cc1)c1cncnc1,TGI,[1],35.2 µM
same,TGI,[2],59.8 µM
same,TGI,[3],39.8 µM
same,TGI,[4],36.7 µM
same,TGI,[5],36.4 µM
same,TGI,[6],31.7 µM
same,TGI,[8],32 µM
same,TGI,[9],40.5 µM
same,TGI,[10],30.1 µM
Clc1cc2ccccc2c2ccccc12,TGI,[1],> 100 µM
same,TGI,[2],> 100 µM
same,TGI,[3],> 100 µM
same,TGI,[4],> 100 µM
same,TGI,[5],> 100 µM
same,TGI,[6],> 100 µM
same,TGI,[7],> 100 µM
same,TGI,[8],73.3 µM
same,TGI,[9],> 100 µM
same,TGI,[10],> 100 µM
O=C(O)C1OC1C(=O)O (centres undefined),TGI,[1],> 100 µM
same,TGI,[2],> 100 µM
same,TGI,[3],> 100 µM
same,TGI,[4],> 100 µM
same,TGI,[5],> 100 µM
same,TGI,[7],> 100 µM
same,TGI,[8],> 100 µM
same,TGI,[9],> 100 µM
same,TGI,[10],> 100 µM
CCc1c2cc(OC)c(OC)cc2cc2c3cc(OC)c(OC)cc3cc[n+]12 (tested in a mixture with another compound),TGI,[1],22.8 µM
same,TGI,[2],> 54.8 µM
same,TGI,[3],> 61.7 µM
same,TGI,[4],25.5 µM
same,TGI,[5],> 76 µM
same,TGI,[6],> 83.1 µM
same,TGI,[7],41.3 µM
same,TGI,[8],87.1 µM
same,TGI,[9],59.3 µM
same,TGI,[10],73.8 µM
CO/N=C(/C)c1cccc(Nc2nc3ccc(Cl)cc3c3[nH]c4ccccc4c23)c1,TGI,[1],19.9 µM
same,TGI,[2],24.9 µM
same,TGI,[3],27.1 µM
same,TGI,[4],21.4 µM
same,TGI,[5],18.8 µM
same,TGI,[6],32.6 µM
same,TGI,[7],29.5 µM
same,TGI,[8],26.9 µM
same,TGI,[9],29.1 µM
same,TGI,[10],19.8 µM
COc1cc2c(cc1OC)C1c3ccccc3CCN1CCC2 (centres undefined),TGI,[1],> 100 µM
same,TGI,[2],> 100 µM
same,TGI,[3],> 100 µM
same,TGI,[4],> 100 µM
same,TGI,[6],> 100 µM
same,TGI,[7],> 100 µM
same,TGI,[9],> 100 µM
same,TGI,[10],> 100 µM
CC(C)=Cc1cc(C)c2c3c(c(O)c(O)c(C)c13)C(C)=CC2=O,TGI,[1],26.6 µM
same,TGI,[2],89 µM
same,TGI,[3],51.3 µM
same,TGI,[4],55.1 µM
same,TGI,[5],55.9 µM
same,TGI,[6],> 100 µM
same,TGI,[7],60.3 µM
same,TGI,[8],44.2 µM
same,TGI,[9],> 100 µM
same,TGI,[10],50.8 µM
CN(C)CCCNc1ccc2nnn3c4ccc(OC(=O)c5ccccc5)cc4c(=O)c1c23,TGI,[1],28.9 µM
same,TGI,[2],22.9 µM
same,TGI,[3],33.7 µM
same,TGI,[4],19.1 µM
same,TGI,[5],25.2 µM
same,TGI,[6],23.8 µM
same,TGI,[7],25.6 µM
same,TGI,[8],32.9 µM
same,TGI,[9],34.3 µM
same,TGI,[10],29.6 µM
Clc1ccc(C2CC(c3cccc(Nc4ccncc4)c3)=NN2c2ccc(Cl)cc2)cc1 (centres undefined),GI50,[1],2.09 µM
same,TGI,[1],4.75 µM
same,GI50,[2],1.88 µM
same,TGI,[2],3.49 µM
same,GI50,[3],1.55 µM
same,TGI,[3],2.95 µM
same,GI50,[4],1.71 µM
same,TGI,[4],3.24 µM
same,GI50,[5],1.86 µM
same,TGI,[5],3.61 µM
same,GI50,[6],1.55 µM
same,TGI,[6],3.08 µM
same,GI50,[10],1.66 µM
same,TGI,[10],3.04 µM
c1ccc2c(c1)OCCc1cn[nH]c1-2,TGI,[1],> 100 µM
same,TGI,[3],> 100 µM
same,TGI,[5],> 100 µM
same,TGI,[7],> 100 µM
same,TGI,[8],> 100 µM
same,TGI,[9],> 100 µM
same,TGI,[10],> 100 µM
O=C1C[C@H](COCc2ccccc2)NC(=O)C[C@H](COCc2ccccc2)NC(=O)C[C@H](COCc2ccccc2)N1,TGI,[1],> 100 µM
same,TGI,[2],> 100 µM
same,TGI,[3],> 100 µM
same,TGI,[4],> 100 µM
same,TGI,[5],> 100 µM
same,TGI,[6],> 100 µM
same,TGI,[7],> 100 µM
same,TGI,[8],> 100 µM
same,TGI,[9],> 100 µM
same,TGI,[10],> 100 µM
COc1ccc(C(=O)O[C@H]2CC[C@@]3(C)[C@@H]4CC[C@H]5[C@]6(O)C[C@H](O)[C@@]7(O)[C@@H](CN8C[C@@H](C)CC[C@H]8[C@@]7(C)O)[C@]6(O)C[C@@]53OC24O)cc1OC,TGI,[1],> 100 µM
same,TGI,[2],> 100 µM
same,TGI,[3],> 100 µM
same,TGI,[4],> 100 µM
same,TGI,[5],> 100 µM
same,TGI,[6],> 100 µM
same,TGI,[7],> 100 µM
same,TGI,[8],> 100 µM
same,TGI,[9],> 100 µM
same,TGI,[10],> 100 µM
COc1ccc(/C=C2\C[C@H]3[C@@H]4CC=C5C[C@@H](OC(C)=O)CC[C@]5(C)[C@H]4CC[C@]3(C)\C2=N\O)cc1OC,TGI,[1],27.1 µM
same,TGI,[2],> 100 µM
same,TGI,[3],> 100 µM
same,TGI,[4],> 100 µM
same,TGI,[5],> 100 µM
same,TGI,[6],> 100 µM
same,TGI,[7],> 100 µM
same,TGI,[8],> 100 µM
same,TGI,[9],> 100 µM
same,TGI,[10],> 100 µM
O=C1CCCC/C1=C1/SC(=Nc2ccccc2)C(=Nc2ccccc2)N1c1ccccc1,TGI,[1],> 100 µM
same,TGI,[2],> 100 µM
same,TGI,[3],> 100 µM
same,TGI,[5],> 100 µM
same,TGI,[8],> 100 µM
same,TGI,[10],> 100 µM
O=C(O)C(O)(c1ccc(-c2ccccc2)cc1)c1ccc(-c2ccccc2)cc1,TGI,[2],40.6 µM
same,TGI,[3],41.5 µM
same,TGI,[4],43.7 µM
same,TGI,[5],45.9 µM
same,TGI,[6],70 µM
same,TGI,[7],57.8 µM
same,TGI,[8],30.6 µM
same,TGI,[9],> 100 µM
same,TGI,[10],36.7 µM

# — PubChem BioAssay (NCI)
